# From patent US11969417B2, “Topical formulation for use in alopecia” (TOMORROWLABS GMBH, priority 2019, dated 2024)
# Entries after “also recorded” stand apart in the source; their conditions may differ.
# Tested on: dermal papilla cell (DP)
# Experiment: 3D spheroid (hanging drop) culture model of dermal papilla cells
# Format: cell-based
# Details: 3D spheroid culture
# Procedure: FIG. 1: 3D hanging drop culture of DPCs. […] After spheroid formation is complete, the samples are transferred into a 96 well plate for further cultivation and drug exposure. […] (A) Representative images of spheroids stained for newly synthesized cells were taken after drug exposure for 12 hours (left column) and 24 hours (right column) respectively. Scale bars: 200 μm.
structure (smiles),measurement,setting,value
"Cc1c(O)c(=O)ccn1C [Deferiprone, 3-hydroxy-1,2-dimethylpyridin-4(1H)-one]",DP cell migration (radius of migration around the spheroids),after 24 hours,without impeding; also recorded: unchanged
same,DP cell proliferation (synthesis of new daughter cells),drug exposure for 12 hours and 24 hours,significantly increases; also recorded: significantly enhanced
